# Reference: PubChem BioAssay (NCI)
#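 Compound exposure: 48 hours, 5 concentrations, 96-well plates. TGI is the concentration that stops growth completely.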
# How the values were obtained:
# Assay in all cases: NCI anticancer screen, dose series, 48 h
# CCRF-CEM leukemia = tested on: CCRF-CEM leukemia
# PC-3 prostate = tested on: PC-3 prostate
# DU-145 prostate = tested on: DU-145 prostate
# SNB-19 CNS = tested on: SNB-19 CNS
# HCC-2998 colon = tested on: HCC-2998 colon
# COLO 205 colon = tested on: COLO 205 colon
# CAKI-1 renal = tested on: CAKI-1 renal
# NCI-H460 lung = tested on: NCI-H460 lung
# KM12 colon = tested on: KM12 colon
# SW-620 colon = tested on: SW-620 colon
# SF-268 CNS = tested on: SF-268 CNS
# SK-MEL-5 melanoma = tested on: SK-MEL-5 melanoma
# SF-295 CNS = tested on: SF-295 CNS
# HL-60(TB) leukemia = tested on: HL-60(TB) leukemia
# MOLT-4 leukemia = tested on: MOLT-4 leukemia
# BT-549 breast = tested on: BT-549 breast
# HT29 colon = tested on: HT29 colon
# LOX IMVI melanoma = tested on: LOX IMVI melanoma
# U251 CNS = tested on: U251 CNS
# OVCAR-8 ovarian = tested on: OVCAR-8 ovarian
Compound,TGI (CCRF-CEM leukemia) [µM],TGI (PC-3 prostate) [µM],TGI (DU-145 prostate) [µM],TGI (SNB-19 CNS) [µM],TGI (HCC-2998 colon) [µM],TGI (COLO 205 colon) [µM],TGI (CAKI-1 renal) [µM],TGI (NCI-H460 lung) [µM],TGI (KM12 colon) [µM],TGI (SW-620 colon) [µM],TGI (SF-268 CNS) [µM],TGI (SK-MEL-5 melanoma) [µM],TGI (SF-295 CNS) [µM],TGI (HL-60(TB) leukemia) [µM],TGI (MOLT-4 leukemia) [µM],TGI (BT-549 breast) [µM],TGI (HT29 colon) [µM],TGI (LOX IMVI melanoma) [µM],TGI (U251 CNS) [µM],TGI (OVCAR-8 ovarian) [µM]
CC(C)NC(=O)OCc1c(COC(=O)NC(C)C)c(-c2ccc[n+](COC(=O)CC(C)(C)C)c2)n2c1CCC2,> 100,> 100,> 100,> 100,> 100,> 100,> 100,> 100,> 100,> 100,> 100,> 100,> 100,> 100,> 100,> 100,> 100,> 100,> 100,> 100
CCOC(=O)C(=C(SC)SC)c1nn2c(=O)cc(C)nc2s1,68.6,56.6,30.1,86,34.9,36.2,60.1,60.7,89.7,41.3,54.5,36.9,> 100,37.6,44.1,43.7,35.8,29.5,58.1,43.9
Cn1c(=O)c2c(nc(NCCCCl)n2CC(=O)NCCCCl)n(C)c1=O,> 100,> 100,> 100,> 100,> 100,> 100,> 100,> 100,> 100,> 100,> 100,> 100,> 100,> 100,> 100,> 100,> 100,> 100,> 100,> 100
CCCN=C(NC(=O)c1ccc(Cl)cc1)SC,> 100,> 100,> 100,> 100,> 100,> 100,> 100,> 100,> 100,> 100,> 100,> 100,> 100,> 100,> 100,89.8,> 100,> 100,> 100,> 100
N#Cc1nc(COCCOCc2ccccc2)oc1N,> 100,> 100,> 100,> 100,> 100,> 100,> 100,> 100,> 100,> 100,> 100,> 100,> 100,> 100,> 100,> 100,> 100,> 100,> 100,> 100
